Among the test systems are SW-620 colon; OVCAR-4 ovarian; HS 578T breast; T-47D breast; ACHN renal; SF-539 CNS; CAKI-1 renal; SR leukemia; RPMI-8226 leukemia; SN12C renal.
What all share (test): DTP human tumour cell line panel, 48 h

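Test compounds were applied to cells in 96-well plates for 48 hours at 5 doses. The concentration for 50% growth inhibition is given as GI50. At the TGI there is no net growth.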

We go through three compounds from PubChem BioAssay (NCI).

Usually TGI stands for the concentration giving total growth inhibition. In general, GI50 refers to the concentration that inhibits growth by half.

In the case of `Cc1ccc2c(c1)[n+]([O-])c(N)n[n+]2[O-]`, the TGI with SW-620 colon, in the experiment with OVCAR-4 ovarian, in the experiment with HS 578T breast, with T-47D breast, in the experiment on ACHN renal and in the experiment on SF-539 CNS was more than 100000 nM throughout. The TGI in the experiment on CAKI-1 renal, in the experiment with SR leukemia, in the experiment on RPMI-8226 leukemia and in the experiment on SN12C renal was more than 100000 nM throughout.
`CN1CCN(C(=O)OCc2nc3c(N4CCOCC4)nc(Cl)nc3n2C)CC1`: the GI50 was 484 nM in the experiment on SW-620 colon; 1060 nM in the experiment with OVCAR-4 ovarian; 1640 nM in the experiment with HS 578T breast; 2010 nM with T-47D breast; 831 nM in the experiment with ACHN renal; 1390 nM in the experiment on SF-539 CNS. In addition, the GI50 in the experiment with CAKI-1 renal was 1030 nM; in the experiment on SR leukemia it was 241 nM; with RPMI-8226 leukemia it was 330 nM; in the experiment on SN12C renal, 1450 nM. The TGI was 1830 nM with SW-620 colon; 2270 nM in the experiment with OVCAR-4 ovarian; 5380 nM with HS 578T breast; 4990 nM in the experiment on T-47D breast; 2110 nM in the experiment with ACHN renal; 2730 nM with SF-539 CNS. For the same compound, the TGI in the experiment on CAKI-1 renal is 2310 nM; with SR leukemia it was 1330 nM; in the experiment on RPMI-8226 leukemia, 1630 nM; in the experiment with SN12C renal, 3060 nM.
For the compound `O=C(N/N=C/c1ccccc1O)c1ccccc1Nc1ccnc(C(F)(F)F)c1`, the GI50 with SW-620 colon was 2040 nM; in the experiment with OVCAR-4 ovarian it was 271 nM; with HS 578T breast, 12900 nM; in the experiment on T-47D breast it was 1070 nM; in the experiment with ACHN renal, 342 nM; in the experiment on SF-539 CNS, 545 nM. Also, the GI50 was 337 nM with CAKI-1 renal, 197 nM in the experiment on SR leukemia, 189 nM in the experiment on RPMI-8226 leukemia and 974 nM in the experiment with SN12C renal. The TGI with SW-620 colon is more than 100000 nM; in the experiment with OVCAR-4 ovarian, more than 100000 nM; in the experiment with HS 578T breast, more than 100000 nM; with T-47D breast it was more than 78400 nM; in the experiment with ACHN renal, more than 63500 nM; in the experiment on SF-539 CNS it was 11300 nM. In addition, the concentration for total growth inhibition (TGI) was 10300 nM in the experiment with CAKI-1 renal, 1640 nM in the experiment with RPMI-8226 leukemia and 72600 nM with SN12C renal.
